Format in all cases: in vivo
Assay [1] concerns Colletotricum lagenarium. The assay can be described thus: Cucumber Anthracnose (COLLLA), foliar spray, percent disease control. The note with it: foliar.
In assay [2] the test system is Cochliobolus sativus. As to the kind of experiment: Spot Blotch of Wheat (COCHSA), foliar spray, percent disease control. To be noted: Bipolaris sorokiniana, foliar; read-out: COCHSA percent control.
The test system of assay [3] is DROSME, AEDSAE, LAPHEG, or HELIVI. The assay can be described thus: Insecticidal activity, active if any of DROSME, AEDSAE, LAPHEG or HELIVI was controlled at 80% or more. The note with it: read-out: >80% mortality on any insect species @ 4000 ppm.
The subject of assay [4] is Pseudoperonospora cubensis. The assay can be described thus: Cucumber Downy Mildew (PSPECU), foliar spray, percent disease control. To be noted: foliar, read-out: PSPECU percent control.

Experimental findings from patent US8895568B2, “Compositions comprising substituted pteridines as agrochemicals” (Dow AgroSciences LLC, priority 2009, dated 2014) are described below.

`FC(F)(F)c1ccc(Oc2ccc(CCNc3ncnc4nccnc34)cn2)cc1` [Compound 126]: the pest or weed control at 200 µg/mL lay in the range of 80 to 100% in assay [1], 0 to 49% in assay [2] and 80 to 100% in assay [4]. Moreover, the pest or weed control at 4000 ppm in assay [3] was over 80%.
As to `Cc1cnc2ncnc(NCCc3ccc(Oc4ccc(C#N)cn4)cc3)c2n1` [Compound 52], the pest or weed control at 200 µg/mL in assay [1] was in the range of 0 to 49%; in assay [2] it was 0 to 49%; in assay [4], 80 to 100%. Moreover, the pest or weed control at 4000 ppm in assay [3] is over 80%.
As to `Cc1cc(Oc2cc(C(F)(F)F)ccn2)ccc1CCNc1ncnc2nccnc12` [Compound 129], the pest or weed control at 200 µg/mL lay within 50 to 79% in assay [1], 50 to 79% in assay [2] and 80 to 100% in assay [4]. Besides, the pest or weed control at 4000 ppm in assay [3] is over 80%.
Consider `Cc1cc(CCNc2ncnc3nccnc23)ccc1Oc1c(F)cnc(C(F)(F)F)c1F` [Compound 166], for which the pest or weed control at 200 µg/mL in assay [1] is 50 to 79%; in assay [2], 0 to 49%; in assay [4], 80 to 100%. Also, in assay [3], the pest or weed control at 4000 ppm was over 80%.
Taken in the same sequence, the figures for `FC(F)(F)COc1ccnc(Oc2ccc(CCNc3ncnc4nccnc34)cc2)c1` [Compound 96, Pteridin-4-yl-(2-{4-[4-(2,2,2-trifluoroethoxy)-pyridin-2-yloxy]-phenyl}-ethyl)-amine] were 0 to 49%, 0 to 49%, 80 to 100% and over 80%.
Taken in the same sequence, the figures for `FC(F)(F)c1cccc(Oc2ccc(CCNc3ncnc4nccnc34)cc2)n1` [Compound 6] were 0 to 49%, 0 to 49%, 80 to 100% and over 80%.
With `c1csc(Oc2ccc(CCNc3ncnc4nccnc34)cc2)n1` [Compound 48], the pest or weed control at 200 µg/mL is 0 to 49% in assay [1], 0 to 49% in assay [2] and 80 to 100% in assay [4]. The pest or weed control at 4000 ppm in assay [3] is over 80%.
In the case of `Cc1ccc(Oc2ccc(CCNc3ncnc4nccnc34)cc2)cc1` [Compound 136], the pest or weed control at 200 µg/mL in assay [1] lay in the range of 50 to 79%; in assay [2], 0 to 49%; in assay [4] it was 80 to 100%. In assay [3], the pest or weed control at 4000 ppm was over 80%.
With `CCOc1cc(CCNc2ncnc3nccnc23)ccc1Oc1cc(C(F)(F)F)ccn1` [Compound 153], the pest or weed control at 200 µg/mL in assay [1] lay in the range of 0 to 49%; in assay [2], 0 to 49%; in assay [4] it was 80 to 100%. Moreover, the pest or weed control at 4000 ppm in assay [3] was over 80%.
In the case of `Cc1cc(CCNc2ncnc3nccnc23)ccc1Oc1ccc(C(F)(F)F)cn1` [Compound 141], the pest or weed control at 200 µg/mL was 50 to 79% in assay [1], 0 to 49% in assay [2] and 80 to 100% in assay [4]. In addition, in assay [3], the pest or weed control at 4000 ppm is over 80%.
The matching figures for `Fc1cc(F)c(Oc2ccc(CCNc3ncnc4nccnc34)cc2)nc1F` [Compound 150]: 0 to 49%, 0 to 49%, 80 to 100% and over 80%.
The matching figures for `COc1cc(CCNc2ncnc3nccnc23)ccc1Oc1ncc(C(F)(F)F)cc1F` [Compound 130]: 0 to 49%, 0 to 49%, 80 to 100% and over 80%.
Taken in the same sequence, the figures for `Fc1cc(Oc2cc(C(F)(F)F)ccn2)ccc1CCNc1ncnc2nccnc12` [Compound 103] were 0 to 49%, 0 to 49%, 80 to 100% and over 80%.
With `COc1cc(C(F)(F)F)cc(Oc2ccc(CCNc3ncnc4nc(C)c(C)nc34)cc2)n1` [Compound 198], the pest or weed control at 200 µg/mL in assay [1], in assay [2] and in assay [4] was 0 to 49% throughout. For the same compound, the pest or weed control at 4000 ppm in assay [3] is over 80%.
With `CC(C)(C)OC(=O)c1ccc(Oc2ccc(CCNc3ncnc4nccnc34)cc2)nc1` [Compound 165], the pest or weed control at 200 µg/mL was 0 to 49% in assay [1], 0 to 49% in assay [2] and 80 to 100% in assay [4]. Moreover, the pest or weed control at 4000 ppm in assay [3] is over 80%.
Take `Cc1nc2ncnc(NCCc3ccc(Oc4cc(C(F)(F)F)ccn4)cc3)c2nc1C` [Compound 162]: the results for the pest or weed control at 200 µg/mL in assay [1], in assay [2] and in assay [4] were 0 to 49%, 0 to 49% and 80 to 100%, respectively. In addition, the pest or weed control at 4000 ppm in assay [3] is over 80%.
Consider `O=C(c1ccc(Oc2ccc(CCNc3ncnc4nccnc34)cc2)nc1)C1CC1` [Compound 30], for which the pest or weed control at 200 µg/mL in assay [1] fell in the range of 0 to 49%; in assay [2], 0 to 49%; in assay [4], 50 to 79%. The pest or weed control at 4000 ppm in assay [3] is over 80%.
In the case of `N#Cc1ccc(Oc2ccc(CCNc3ncnc4nccnc34)cc2)nc1` [Compound 14], the results for the pest or weed control at 200 µg/mL in assay [1], in assay [2] and in assay [4] were 0 to 49%, 0 to 49% and 80 to 100%, respectively. In addition, the pest or weed control at 4000 ppm in assay [3] was over 80%.
As for `COCCOc1cc(C(F)(F)F)cc(Oc2ccc(CCNc3ncnc4nccnc34)cc2)n1` [Compound 91, (2-{4-[6-(2-Methoxyethoxy)-4-trifluoromethyl-pyridin-2-yloxy]-phenyl}-ethyl)-pteridin-4-yl-amine], the pest or weed control at 200 µg/mL in assay [1] was in the range of 0 to 49%; in assay [2], 0 to 49%; in assay [4], 80 to 100%. Moreover, in assay [3], the pest or weed control at 4000 ppm is over 80%.
In the case of `Fc1cnc(Oc2ccc(CCNc3ncnc4nccnc34)cc2)c(F)c1C(F)(F)F` [Compound 106], the pest or weed control at 200 µg/mL in assay [1] was in the range of 0 to 49%; in assay [2] it was 0 to 49%; in assay [4], 80 to 100%. Besides, in assay [3], the pest or weed control at 4000 ppm was over 80%.
Regarding `Fc1cnc(Oc2ccc(CCNc3ncnc4nccnc34)cc2)c(F)c1` [Compound 107], the figures for the pest or weed control at 200 µg/mL in assay [1], in assay [2] and in assay [4] were 0 to 49%, 0 to 49% and 80 to 100%, respectively. Moreover, in assay [3], the pest or weed control at 4000 ppm is over 80%.
As to `Cc1cnc2ncnc(NCCc3ccc(Oc4nccc(C(F)(F)F)n4)cc3)c2n1` [Compound 55], the pest or weed control at 200 µg/mL lay in the range of 50 to 79% in assay [1], 0 to 49% in assay [2] and 80 to 100% in assay [4]. Also, in assay [3], the pest or weed control at 4000 ppm is over 80%.
Taken in the same sequence, the figures for `COc1cc(CCNc2ncnc3nccnc23)ccc1Oc1ccc(C#N)cn1` [Compound 50] were 0 to 49%, 0 to 49%, 80 to 100% and over 80%.
Taken in the same sequence, the figures for `Cc1nnsc1Oc1ccc(CCNc2ncnc3nccnc23)cc1` [Compound 59] were 0 to 49%, 0 to 49%, 0 to 49% and over 80%.
